Assay: Retest of solid form by PXRD after storage
Type: physicochemical
Conditions: after 1 month storage
Method: Unless recited otherwise, X-Ray powder diffraction data was obtained by using methods known in the art using a SCINTAG powder X-Ray diffractometer model X'TRA equipped with a solid-state detector. Copper radiation of 1.5418 Å was used. A round aluminum sample holder with zero background was used. The scanning parameters included: range: 2-40 degrees two-theta; scan mode: continuous scan; step size: 0.05 deg.; and a rate of 3 deg/min.
The product was isolated by vacuum filtration and dried at 40° C. for 16 hours to obtain STG lactate crystalline form L3.

- Polymorphic form found by PXRD after storage: transform to form L1
SMILES: CC(O)C(=O)O.N[C@@H](CC(=O)N1CCn2c(nnc2C(F)(F)F)C1)Cc1cc(F)c(F)cc1F [Form L3, Sitagliptin lactate]
